The test addresses human α-thrombin (Homo sapiens, UniProt P00734). As to the kind of experiment: In vitro assay for determining proteinase inhibition: human α-thrombin. It counts as biochemical. The conditions noted are these: 25° C., 0.05M TRIS buffer pH 7.4, 0.15M NaCl, 0.1% PEG; sar-PR-pna (or Z-GPR-afc for potent inhibitors); read-out: Inhibitory activity (Ki). The method, then:
Examples of this group are listed below in Table 1. […] Values are as determined according to the in vitro assay described later in the specification.
In Vitro Assay for Determining Proteinase Inhibition
Assays of human α-thrombin and human trypsin were performed by the methods substantially as described in Thrombosis Research, Issue No. 70, page 173 (1993) by S. D. Lewis et al.
The assays were carried out at 25° C. in 0.05M TRIS buffer pH 7.4, 0.15M NaCl, 0.1% PEG. Trypsin assays also contained 1 mM CaCl2.
Concentrations of stock solutions of Z-GPR-afc were determined from measurements of absorbance at 380 nm of the 7-amino-4-trifluoromethyl coumarin produced upon complete hydrolysis of an aliquot of the stock solution by thrombin.
Times required to achieve equilibration between enzyme and inhibitor were determined in control experiments. Initial velocities of product formation in the absence (Vo) or presence of inhibitor (Vi) were measured. Assuming competitive inhibition, and that unity is negligible compared Km /[S], […] (where [S], [I], and e respectively represent the total concentrations, of substrate, inhibitor and enzyme), the equilibrium constant (Ki) for dissociation of the inhibitor from the enzyme can be obtained from the dependence of Vo /Vi on [I] shown in equation 1: […]

pKi: −log10 of the molar value. Bounds are passed on as bounds.

For `Cc1cc2c(c(=O)n1CC(=O)NCc1cc3cc[nH]c3cn1)NC(=O)OC2(C)C`, the pKi is greater than 7.00.
The value for `Cc1cc2c(c(=O)n1CC(=O)NCc1cc3cc[nH]c3cn1)NC(=O)OC2(CC1CC1)CC1CC1` was greater than 7.00.
The value for `CCC1(CC)OC(=O)Nc2c1cc(C)n(CC(=O)NCc1ccc(N)nc1C)c2=O` was greater than 7.00; that for `Cc1cc2c(c(=O)n1CC(=O)NCc1cccc(Cl)c1)NC(=O)OC2(C(C)C)C(C)C` was greater than 7.00.

One may read the pKi as −log10 of the Ki, conventionally taken in molar units.

Source of the values: patent publication US6239132A, “Thrombin inhibitors” (Merck & Co., Inc., priority 2000, dated 2001).
